pIC50: −log10 of the molar value. “And” between values parts separate entries of the source, which are not always exact repeats. Equal values may be shown once. Read-outs that look alike come from different tables or passages of the source.
What was measured:
5HT1a receptors = target: T1, 5HT1a receptors (Rattus norvegicus, UniProt P19327); assay: Binding at 5HT1a receptors in vitro (inhibition of 3H-8-OH-DPAT binding to synaptosomal membranes from cerebral cortex); parameters: species or system Male Sprague-Dawley rats; settings: 0.4 nM 3H-8-OH-DPAT, 37° C., 10 min, pH 7.4, several values in a cell are separate determinations
T1 construct: synaptosomal membranes isolated from cerebral cortex; from tissue; host or cells: rat cerebral cortex, crude synaptosomal membranes (Male Sprague-Dawley rats from Harlan Industries)
T1 sequence (P19327 1-422): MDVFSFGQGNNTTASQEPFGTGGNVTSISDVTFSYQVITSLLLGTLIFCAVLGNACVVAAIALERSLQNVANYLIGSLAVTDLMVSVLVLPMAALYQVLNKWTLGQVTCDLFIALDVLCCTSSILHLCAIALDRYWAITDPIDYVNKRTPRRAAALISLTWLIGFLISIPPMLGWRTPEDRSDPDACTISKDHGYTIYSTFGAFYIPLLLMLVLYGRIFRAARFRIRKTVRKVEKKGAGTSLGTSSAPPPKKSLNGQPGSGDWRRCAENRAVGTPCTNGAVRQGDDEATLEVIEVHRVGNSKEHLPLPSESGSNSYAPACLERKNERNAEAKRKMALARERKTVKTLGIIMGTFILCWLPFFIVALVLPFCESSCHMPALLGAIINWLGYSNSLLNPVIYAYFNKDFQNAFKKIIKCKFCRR
Protocol: This general procedure is set forth in Wong et al., J. Neural Transm. 71:207-218 (1988).
Male Sprague-Dawley rats (110-150 g) from Harlan Industries (Cumberland, Ind.) were fed a Purina Chow ad libitum for at least 3 days before being used in the studies. Rats were killed by decapitation. The brains were rapidly removed, and the cerebral cortices were dissected out at 4° C.
Brain tissues were homogenized in 0.32 M sucrose. After centrifugation at 1000×g for 10 min and then at 17000×g for 20 min, a crude synaptosomal fraction was sedimented. The pellet was suspended in 100 vol of 50 mM Tris-HCl, pH 7.4, incubated at 37° C. for 10 min, and centrifuged at 50000×g for 10 min. The process was repeated and the final pellet was suspended in ice-chilled 50 mM Tris-HCl, pH 7.4. By the radio-ligand binding method, sites specifically labeled by tritiated 8-hydroxy-2-dipropylamino-1,2,3,4-tetrahydronaphthalene ([…]) have been identified as 5HT-1a receptors.
Binding of (^3 H-8-OH-DPAT) was performed according to the previously described method [Wong et al., J. Neural Transm. 64:251-269 (1985)]. Briefly, synaptosomal membranes isolated from cerebral cortex were incubated at 37° C. for 10 min. in 2 ml of 50 mM Tris-HCl, pH 7.4; 10 μM pargyline; 0.6 mM ascorbic acid; and 0.4 nM […]. Binding was terminated by filtering samples under reduced pressure through glass fiber (GFB) filters. The filters were washed twice with 5 ml of ice cold buffer and placed in scintillation vials with 10 ml of PCS (Amersham/Searle) scintillation fluid. Radioactivity was measured with a liquid scintillation spectrometer. Unlabeled 8-OH-DPAT at 10 μM was also included in separate samples to establish non-specific binding. Specific binding of ^3 H-8-OH-DPAT is defined as the difference of radioactivity bound in the absence and in the presence of 10 μM unlabeled 8-OH-DPAT.

[1] = test system: conscious spontaneous hypertensive rats (SHR); assay: Effect on blood pressure after i.v. administration to conscious SHR; format: in vivo; settings: for ED25: Rattus norvegicus, iv, read-out: Blood Pressure ED25 (i.v. dose required to decrease pressure 25%)
Protocol: (§1) The compounds of this invention are also effective in reducing blood pressure. The blood pressure lowering effect of the compounds of this invention was determined in conscious spontaneous hypertensive rats (SHR; 325-425 g). The rats were anesthetized with halothane (2% in nitrous oxide and oxygen) and were implanted with femoral arterial and venous catheters. The tips of arterial and venous catheters-were positioned in the abdominal aorta below the renal arteries and lower abdominal vena cava, respectively. The catheters were routed subcutaneously to an exit point at the base of the skull and then through a small leather harness fastened around the forequarters of each animal. The animals were allowed a 3- to 4-day recovery period after surgery. On the day before an experiment, each rat was conditioned to the experimental surroundings for 6 hours. On the day of the experiment, the harness on the back of each animal was connected to a spring tether through which arterial and venous extension tubing was routed. The other end of the tubing was connected to a water tight swivel. This system permitted direct recording of blood pressure in conscious free moving animals. Mean arterial blood pressure was measured via a Statham strain gauge transducer (P23DB, Statham Instruments, Oxnard, Calif.) and recorded on a multichannel oscillograph (Beckman Model R611, Beckman Instruments, Palo Alto, Calif.). A minimum 30-minute equilibration period was observed prior to the experimental protocol during which time the animals preened and blood pressure was quite labile. Afterward, the animals appeared to sleep and pressure was stable. Following a control blood pressure measurement, rats were dosed with the compound or vehicle i.v., and pressure was monitored at various time intervals thereafter.
(§2) ^1 Standard protocol recorded the blood pressure and heart rate
(§3) responses after 0.3, 1.0 and 3.0 mg/kg i.v. Dose response curves were
(§4) plotted using the % change in pressure from pretreatment control values a
(§5) 15 and 30 minutes after treatment.
(§6) Corr = correlation coefficient for the linear relationship between the lo
(§7) dose(s) and % change (y) in pressure. Values of 1.0 = perfect correlation
(§8) Pos = Positive slope of dose response
ED25 = i.v. dose required to decrease pressure 25%

[2] = test system: conscious spontaneous hypertensive rats (SHR); assay: Effect on heart rate after i.v. administration to conscious SHR; format: in vivo; settings: for ED15: Rattus norvegicus, iv, read-out: Heart Rate ED15
Protocol: as §1, §2, §3, §4, §5, §6, §7, §8
HR Index = ED15 for Heart Rate divided by ED25 for Blood

[3] = 0.25 h, 15 min. after treatment, i.v., conscious SHR
[4] = 0.5 h, 30 min. after treatment, i.v., conscious SHR
[5] = 15 min. after treatment, i.v., conscious SHR
[6] = 30 min. after treatment, i.v., conscious SHR

Row | Structure (SMILES) | pIC50 (5HT1a receptors; IC50 5HT1a) | ED25 [1, 3] [mg/kg] | ED25 [1, 4] [mg/kg] | HR Index (ED15 for Heart Rate divided by ED25 for Blood Pressure) [2, 5] | HR Index (ED15 for Heart Rate divided by ED25 for Blood Pressure) [2, 6] | ED15 [2, 3] [mg/kg] | ED15 [2, 4] [mg/kg] | pIC50 (5HT1a receptors; read-out: IC50 5HT1a) | also measured
1 | CCCN(CCC)C1CCc2cccc(Cl)c2C1 (centres unmarked) [Example 1, 2-Di-n-propylamino-8-chloro-1,2,3,4-tetrahydronaphthalene] | 7.74 | 3.1 | 13 | 8.96 | 0.22 | 27.8 | 2.8 |  | 
2 | CCN(CC)C1CCc2cccc(Cl)c2C1 (centres unmarked) [Example 2, 2-Diethylamino-8-chloro-1,2,3,4-tetrahydronaphthalene] | 7.32 and 7.42 |  |  |  | 1.00 |  |  |  | ED25 ([1]; 0.5 h): 1.5 mg/kg; ED15 ([2]; 0.5 h): 1.5 mg/kg
3 | C=CCN(CC=C)C1CCc2cccc(Cl)c2C1 (centres unmarked) [Example 3, 2-Diallylamino-8-chloro-1,2,3,4-tetrahydronaphthalene] | 7.34 |  |  |  |  |  |  |  | 
4 | CCCCN(CCCC)C1CCc2cccc(Cl)c2C1 (centres unmarked) [Example 4, 2-Di-n-butylamino-8-chloro-1,2,3,4-tetrahydronaphthalene] |  |  |  |  |  |  |  | 6.11 and 6.50 | 
5 | CCCN(CCC)C1CCc2cccc(Br)c2C1 (centres unmarked) [Example 5, 2-Di-n-propylamino-8-bromo-1,2,3,4-tetrahydronaphthalene] | 7.64 and 7.82 | 6.1 | 5.9 | 0.06 | 0.27 | 1.6 | 1.6 |  | 
6 | CCCN(CCC)C1CCc2cccc(F)c2C1 (centres unmarked) [Example 6, 2-Di-n-propylamino-8-fluoro-1,2,3,4-tetrahydronaphthalene] |  | 4.5 |  |  |  |  | 8 | 6.55 | Heart Rate ED15 [2, 5]: Pos
7 | CCCN(CCC)C1CCc2cccc(C(=O)OC)c2C1 (centres unmarked) [Example 7, 2-Di-n-propylamino-8-methoxycarbonyl-1,2,3,4-tetrahydronaphthalene] | 8.85 and 8.74 and 8.62 |  | 5.3 |  | 0.21 | 1.4 | 1.1 |  | 
8 | CCCN(CCC)C1CCc2cccc(C#N)c2C1 (centres unmarked) [Example 8, 2-Di-n-propylamino-8-cyano-1,2,3,4-tetrahydronaphthalene] | 7.26 | 5.1 | 4.1 | 0.71 | 0.68 | 3.6 | 2.8 |  | 
9 | CCCNC1CCc2cccc(Cl)c2C1 (centres unmarked) [Example 10, 2-n-Propylamino-8-chloro-1,2,3,4-tetrahydronaphthalene] |  | 2.5 | 4.5 | 0.48 | 0.47 | 1.2 | 2.1 | 6.70 | 
10 | CN(C)C1CCc2cccc(Cl)c2C1 (centres unmarked) [Example 11, 2-Dimethylamino-8-chloro-1,2,3,4-tetrahydronaphthalene] |  | 1.1 | 1.8 | 1.0 | 3.00 | 1.1 | 5.4 | 6.24 and 6.57 | 
11 | CNC1CCc2cccc(Cl)c2C1 (centres unmarked) [Example 12, 2-Methylamino-8-chloro-1,2,3,4-tetrahydronaphthalene] |  | 1.4 | 1.8 |  | 0.83 |  | 1.5 |  | 
12 | CC(C)N(C)C1CCc2cccc(Cl)c2C1 (centres unmarked) [Example 14, 2-Methylisopropylamino-8-chloro-1,2,3,4-tetrahydronaphthalene] |  | 2.9 |  | 1.31 |  | 3.8 |  |  | 
13 | CCCN(C)C1CCc2cccc(Cl)c2C1 (centres unmarked) [Example 15, 2-Methylpropylamino-8-chloro-1,2,3,4-tetrahydronaphthalene] |  | 1.6 | 3.8 |  |  |  |  | 6.30 | 
14 | CCCN(CCC)C1CCc2cccc(C=O)c2C1 (centres unmarked) [Example 17, 2-Di-n-propylamino-8-formyl-1,2,3,4-tetrahydronaphthalene] | 7.76 |  |  |  |  |  |  |  | 
15 | CCCNC1CCc2cccc(NC(C)=O)c2C1 (centres unmarked) [Example 18, 2-Propylamino-8-acetamido-1,2,3,4-tetrahydronaphthalene] |  |  |  |  |  | 3.8 | 1.2 |  | 
16 | CN(C)C1CCc2cccc(C(N)=O)c2C1 (centres unmarked) [Example 19, 2-Dimethylamino-8-carboxamido-1,2,3,4-tetrahydronaphthalene] |  | 10.9 | 1030 |  |  |  |  |  | Heart Rate ED15 [2, 5]: Pos; Heart Rate ED15 [2, 6]: Pos
17 | CCN(C)C1CCc2cccc(C(N)=O)c2C1 (centres unmarked) [Example 20, 2-Methylethylamino-8-carboxamido-1,2,3,4-tetrahydronaphthalene] |  |  |  |  |  |  |  | 6.40 | 
18 | CCCN(CCC)C1CCc2cccc(CO)c2C1 (centres unmarked) [Example 21, 2-Di-n-propylamino-8-hydroxymethyl-1,2,3,4-tetrahydronaphthalene] | 7.26 | 4.2 |  |  |  |  |  |  | convulsion ([1]; 3.0 mg/kg i.v., conscious SHR): caused convulsion

From patent publication US5389687A, “Ring-substituted 2-amino-1,2,3,4-tetra-hydronaphthalenes” (Eli Lilly and Company, priority 1991, dated 1995)
